For one molecule, Activity results are on record in ChEMBL document CHEMBL2074364, “Reversal of multidrug resistance of cancer through inhibition of P-glycoprotein by 5-bromotetrandrine” (Cancer Chemother Pharmacol, 2005).

Structures are written as SMILES.

Data set [1] concerns the target T1, ATP-dependent translocase ABCB1 (Homo sapiens, UniProt P08183). Nature of the data set: TP_TRANSPORTER: cell accumulation of doxorubicin in MCF-7/Dox cells. Type of data set: functional, cell-based.
Data set [2] addresses T1, ATP-dependent translocase ABCB1. Nature of the data set: TP_TRANSPORTER: increase in Doxorubicin intracellular accumulation in MCF-7/Dox cells. Type of data set: functional, cell-based.

T1 sequence (P08183 whole entry): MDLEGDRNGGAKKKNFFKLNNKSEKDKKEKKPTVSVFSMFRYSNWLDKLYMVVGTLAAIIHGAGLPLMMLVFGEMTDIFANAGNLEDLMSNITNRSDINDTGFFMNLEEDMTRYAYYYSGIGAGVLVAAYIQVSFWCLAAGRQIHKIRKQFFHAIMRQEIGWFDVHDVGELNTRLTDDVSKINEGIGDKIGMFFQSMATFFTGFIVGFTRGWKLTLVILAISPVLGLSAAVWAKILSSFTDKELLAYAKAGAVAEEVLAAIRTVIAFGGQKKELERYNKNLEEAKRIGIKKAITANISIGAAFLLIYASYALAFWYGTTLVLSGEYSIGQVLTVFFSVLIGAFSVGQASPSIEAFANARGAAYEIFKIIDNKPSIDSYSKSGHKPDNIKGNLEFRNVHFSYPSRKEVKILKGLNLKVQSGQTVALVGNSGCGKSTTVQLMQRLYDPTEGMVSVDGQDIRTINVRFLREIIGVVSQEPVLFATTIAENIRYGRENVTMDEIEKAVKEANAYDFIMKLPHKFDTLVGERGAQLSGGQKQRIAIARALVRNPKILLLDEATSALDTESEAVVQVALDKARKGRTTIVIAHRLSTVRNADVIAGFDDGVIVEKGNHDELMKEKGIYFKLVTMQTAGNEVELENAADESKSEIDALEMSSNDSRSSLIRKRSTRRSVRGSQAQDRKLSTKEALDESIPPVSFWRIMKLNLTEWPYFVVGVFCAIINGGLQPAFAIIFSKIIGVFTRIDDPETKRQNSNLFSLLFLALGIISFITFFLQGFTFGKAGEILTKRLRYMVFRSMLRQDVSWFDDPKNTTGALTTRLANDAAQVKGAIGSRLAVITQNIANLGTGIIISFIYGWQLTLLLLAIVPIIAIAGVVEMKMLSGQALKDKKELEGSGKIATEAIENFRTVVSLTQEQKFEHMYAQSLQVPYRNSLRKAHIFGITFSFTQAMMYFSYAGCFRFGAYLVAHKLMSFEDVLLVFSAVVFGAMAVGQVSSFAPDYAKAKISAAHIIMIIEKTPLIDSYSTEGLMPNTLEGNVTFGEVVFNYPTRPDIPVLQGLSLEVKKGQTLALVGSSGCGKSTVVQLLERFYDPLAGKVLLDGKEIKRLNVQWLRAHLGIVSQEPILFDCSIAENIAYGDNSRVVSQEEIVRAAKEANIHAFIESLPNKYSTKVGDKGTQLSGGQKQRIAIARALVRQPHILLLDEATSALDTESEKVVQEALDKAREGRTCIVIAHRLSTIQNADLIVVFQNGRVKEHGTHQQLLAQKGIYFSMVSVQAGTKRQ

As for `COc1ccc2cc1Oc1ccc(cc1)C[C@@]1(C)c3cc(c(OC)cc3CCN1C)Oc1c(OC)c(OC)c(Br)c3c1[C@](C)(C2)N(C)CC3` [BROMOTETRANDRINE], the Activity entry in data set [1] and in data set [2] was “inhibitor [+]” each time.
